Experimental data from ChEMBL document CHEMBL1156814, “Highly suppressing wild-type HIV-1 and Y181C mutant HIV-1 strains by 10-chloromethyl-11-demethyl-12-oxo-calanolide A with druggable profile” (J Med Chem, 2010).

Columns and labels:
[1] = tested on: Human immunodeficiency virus 1; assay: Antiviral activity against 100 TCID50 HIV1 infected in human TZM-b1 cells assessed as inhibition of viral replication by pseudovirus based assay; format: functional, organism-based
[2] = tested on: Mus musculus; assay: Toxicity in ICR mouse assessed as mortality at 1000 mg/kg, ig after 4 days administered as single dose; format: organism-based; set-up: dose 1000 mg/kg, route intragastric; details: in vivo, po, 96 h
[3] = tested on: Mus musculus; assay: Toxicity in ICR mouse assessed as mortality at 1000 mg/kg, ig after 7 days administered as single dose; format: organism-based; set-up: dose 1000 mg/kg, route intragastric; details: in vivo, po, 168 h
[4] = tested on: Mus musculus; assay: Toxicity in ICR mouse assessed as mortality at 1000 mg/kg, ig after 11 days administered as single dose; format: organism-based; set-up: dose 1000 mg/kg, route intragastric; details: in vivo, po, 264 h
[5] = tested on: Mus musculus; assay: Toxicity in ICR mouse assessed as mortality at 1000 mg/kg, ig after 14 days administered as single dose; format: organism-based; set-up: dose 1000 mg/kg, route intragastric; details: in vivo, po, 336 h
[6] = tested on: Mus musculus; assay: Toxicity in ICR mouse assessed as body weight at 4640 mg/kg, ig after 1 day administered as single dose (reference value: 21.1+/-0.9); format: organism-based; set-up: dose 4640 mg/kg, route intragastric; details: in vivo, po, 24 h
[7] = tested on: Mus musculus; assay: Toxicity in ICR mouse assessed as body weight at 4640 mg/kg, ig after 4 days administered as single dose (reference value: 21.1+/-0.9); format: organism-based; set-up: dose 4640 mg/kg, route intragastric; details: in vivo, po, 96 h
[8] = tested on: Mus musculus; assay: Toxicity in ICR mouse assessed as body weight at 4640 mg/kg, ig after 7 days administered as single dose (reference value: 21.1+/-0.9); format: organism-based; set-up: dose 4640 mg/kg, route intragastric; details: in vivo, po, 168 h
[9] = tested on: Mus musculus; assay: Toxicity in ICR mouse assessed as body weight at 2150 mg/kg, ig after 1 day administered as single dose (reference value: 20.9+/-0.9); format: organism-based; set-up: dose 2150 mg/kg, route intragastric; details: in vivo, po, 24 h
[10] = tested on: Mus musculus; assay: Toxicity in ICR mouse assessed as body weight at 2150 mg/kg, ig after 4 days administered as single dose (reference value: 20.9+/-0.9); format: organism-based; set-up: dose 2150 mg/kg, route intragastric; details: in vivo, po, 96 h
[11] = tested on: Mus musculus; assay: Toxicity in ICR mouse assessed as body weight at 2150 mg/kg, ig after 7 days administered as single dose (reference value: 20.9+/-0.9); format: organism-based; set-up: dose 2150 mg/kg, route intragastric; details: in vivo, po, 168 h
[12] = tested on: Mus musculus; assay: Toxicity in ICR mouse assessed as body weight at 1000 mg/kg, ig after 1 day administered as single dose (reference value: 21.2+/-0.8); format: organism-based; set-up: dose 1000 mg/kg, route intragastric; details: in vivo, po, 24 h
[13] = tested on: Mus musculus; assay: Toxicity in ICR mouse assessed as body weight at 1000 mg/kg, ig after 4 days administered as single dose (reference value: 21.2+/-0.8); format: organism-based; set-up: dose 1000 mg/kg, route intragastric; details: in vivo, po, 96 h
[14] = tested on: Mus musculus; assay: Toxicity in ICR mouse assessed as body weight at 1000 mg/kg, ig after 7 days administered as single dose (reference value: 21.2+/-0.8); format: organism-based; set-up: dose 1000 mg/kg, route intragastric; details: in vivo, po, 168 h
[15] = Toxicity in African green monkey Vero cells; format: cell-based; details: chlorocebus sabaeus
[16] = Selectivity index, ratio of IC50 for African green monkey Vero cells to EC50 for HIV1; format: toxicity, cell-based; details: read-out: Selectivity Index
[17] = tested on: Human immunodeficiency virus 1; assay: Antiviral activity against HIV1 PNL4-3; format: functional, organism-based; details: Human immunodeficiency virus 1, PNL4-3
[18] = tested on: Human immunodeficiency virus 1; assay: Antiviral activity against HIV1 with reverse transcriptase K103N mutation; format: functional, organism-based
[19] = tested on: Human immunodeficiency virus 1; assay: Antiviral activity against HIV1 with reverse transcriptase Y181C mutation; format: functional, organism-based
[20] = tested on: Human immunodeficiency virus 1; assay: Antiviral activity against HIV1 with reverse transcriptase Y181L mutation; format: functional, organism-based
[21] = tested on: Human immunodeficiency virus 1; assay: Antiviral activity against HIV1 with reverse transcriptase G190A mutation; format: functional, organism-based
[22] = tested on: Human immunodeficiency virus 1; assay: Antiviral activity against HIV1 with reverse transcriptase […] mutation; format: functional, organism-based
[23] = tested on: Rattus norvegicus; assay: AUC in Wistar rat at 50 mg/kg, po; format: ADME, organism-based, Plasma; set-up: dose 50 mg/kg, route oral; details: in vivo
[24] = Mean residence time in Wistar rat at 50 mg/kg, po; format: ADME, organism-based; set-up: dose 50 mg/kg, route oral; details: in vivo
[25] = Half life in Wistar rat at 50 mg/kg, po; format: ADME, organism-based; set-up: dose 50 mg/kg, route oral; details: in vivo
[26] = Tmax in Wistar rat at 50 mg/kg, po; format: ADME, organism-based; set-up: dose 50 mg/kg, route oral; details: in vivo
[27] = Cmax in Wistar rat at 50 mg/kg, po; format: ADME, organism-based; set-up: dose 50 mg/kg, route oral; details: in vivo
[28] = tested on: Rattus norvegicus; assay: AUC in Wistar rat at 5 mg/kg, iv; format: ADME, organism-based, Plasma; set-up: dose 5 mg/kg, route intravenous; details: in vivo
[29] = Mean residence time in Wistar rat at 5 mg/kg, iv; format: ADME, organism-based; set-up: dose 5 mg/kg, route intravenous; details: in vivo
[30] = Half life in Wistar rat at 5 mg/kg, iv; format: ADME, organism-based; set-up: dose 5 mg/kg, route intravenous; details: in vivo
[31] = Tmax in Wistar rat at 5 mg/kg, iv; format: ADME, organism-based; set-up: dose 5 mg/kg, route intravenous; details: in vivo
[32] = Cmax in Wistar rat at 5 mg/kg, iv; format: ADME, organism-based; set-up: dose 5 mg/kg, route intravenous; details: in vivo
[33] = Oral bioavailability in Wistar rat at 50 mg/kg; format: ADME, organism-based; details: in vivo
[34] = tested on: Mus musculus; assay: Toxicity in ICR mouse assessed as mortality at 4640 mg/kg, ig after 1 day administered as single dose; format: organism-based; set-up: dose 4640 mg/kg, route intragastric; details: in vivo, po, 24 h
[35] = tested on: Mus musculus; assay: Toxicity in ICR mouse assessed as mortality at 4640 mg/kg, ig after 4 days administered as single dose; format: organism-based; set-up: dose 4640 mg/kg, route intragastric; details: in vivo, po, 96 h
[36] = tested on: Mus musculus; assay: Toxicity in ICR mouse assessed as mortality at 4640 mg/kg, ig after 7 days administered as single dose; format: organism-based; set-up: dose 4640 mg/kg, route intragastric; details: in vivo, po, 168 h
[37] = tested on: Mus musculus; assay: Toxicity in ICR mouse assessed as mortality at 4640 mg/kg, ig after 11 days administered as single dose; format: organism-based; set-up: dose 4640 mg/kg, route intragastric; details: in vivo, po, 264 h
[38] = tested on: Mus musculus; assay: Toxicity in ICR mouse assessed as mortality at 4640 mg/kg, ig after 14 days administered as single dose; format: organism-based; set-up: dose 4640 mg/kg, route intragastric; details: in vivo, po, 336 h
[39] = tested on: Mus musculus; assay: Toxicity in ICR mouse assessed as mortality at 2150 mg/kg, ig after 1 day administered as single dose; format: organism-based; set-up: dose 2150 mg/kg, route intragastric; details: in vivo, po, 24 h
[40] = tested on: Mus musculus; assay: Toxicity in ICR mouse assessed as mortality at 2150 mg/kg, ig after 4 days administered as single dose; format: organism-based; set-up: dose 2150 mg/kg, route intragastric; details: in vivo, po, 96 h
[41] = tested on: Mus musculus; assay: Toxicity in ICR mouse assessed as mortality at 2150 mg/kg, ig after 7 days administered as single dose; format: organism-based; set-up: dose 2150 mg/kg, route intragastric; details: in vivo, po, 168 h
[42] = tested on: Mus musculus; assay: Toxicity in ICR mouse assessed as mortality at 2150 mg/kg, ig after 11 days administered as single dose; format: organism-based; set-up: dose 2150 mg/kg, route intragastric; details: in vivo, po, 264 h
[43] = tested on: Mus musculus; assay: Toxicity in ICR mouse assessed as mortality at 2150 mg/kg, ig after 14 days administered as single dose; format: organism-based; set-up: dose 2150 mg/kg, route intragastric; details: in vivo, po, 336 h
[44] = tested on: Mus musculus; assay: Toxicity in ICR mouse assessed as mortality at 1000 mg/kg, ig after 1 day administered as single dose; format: organism-based; set-up: dose 1000 mg/kg, route intragastric; details: in vivo, po, 24 h
[45] = Toxicity in human TZM-b1 cells; format: cell-based
[46] = Human immunodeficiency virus 1, TZM-b1, read-out: EC50

## CCCc1cc(=O)oc2c3c(c4c(c12)OC(C)(C)C=C4)OC(CNS(=O)(=O)c1ccc(OC)cc1)CC3=O (stereo unspecified)
[1]; tzm-b1
  EC50: Not Active

## CCCc1cc(=O)oc2c3c(c4c(c12)OC(C)(C)C=C4)OC(CN(C)C)CC3=O (stereo unspecified)
[1]; tzm-b1
  EC50: Not Active

## CCCc1cc(=O)oc2c3c(c4c(c12)OC(C)(C)C=C4)OC(CCl)CC3=O (stereo unspecified)
[2]
  Activity: Non-toxic
[3]
  Activity: Non-toxic
[4]
  Activity: Non-toxic
[5]
  Activity: Non-toxic
[6]
  Activity: 23.2 g
[7]
  Activity: 27.5 g
[8]
  Activity: 29.9 g
[9]
  Activity: 23 g
[10]
  Activity: 28 g
[11]
  Activity: 31.4 g
[12]
  Activity: 23 g
[13]
  Activity: 28.5 g
[14]
  Activity: 31.1 g
[1]; [46]
  EC50: 7.4 nM
[15]
  CC50: 10500 nM
[16]
  selectivity ratio: 1420
[17]
  EC50: 7.4 nM
[18]
  EC50: 316 nM
[19]
  EC50: 0.46 nM
[20]
  EC50: 6130 nM
[21]
  EC50: 43.9 nM
[22]
  EC50: 104 nM
[23]
  AUC: 4.7 ug/hr.ml
[24]
  MRT: 9.2 h
[25]
  half-life: 3.8 h
[26]
  Tmax: 8 h
[27]
  Cmax: 340 ng/mL
[28]
  AUC: 1.5 ug/hr.ml
[29]
  MRT: 1.7 h
[30]
  half-life: 1.9 h
[31]
  Tmax: 1.8 min
[32]
  Cmax: 930 ng/mL
[33]
  bioavailability: 32.7%
[34]
  Activity: Non-toxic
[35]
  Activity: Non-toxic
[36]
  Activity: Non-toxic
[37]
  Activity: Non-toxic
[38]
  Activity: Non-toxic
[39]
  Activity: Non-toxic
[40]
  Activity: Non-toxic
[41]
  Activity: Non-toxic
[42]
  Activity: Non-toxic
[43]
  Activity: Non-toxic
[44]
  Activity: Non-toxic

## CCCc1cc(=O)oc2c3c(c4c(c12)OC(C)(C)C=C4)OC(C(F)(F)F)CC3=O (stereo unspecified)
[1]; [46]
  EC50: 14900 nM

## CCCc1cc(=O)oc2c3c(c4c(c12)OC(C)(C)C=C4)OC(CN1CCCCC1)CC3=O (stereo unspecified)
[1]; tzm-b1
  EC50: Not Active

## CCCc1cc(=O)oc2c3c(c4c(c12)OC(C)(C)C=C4)O[C@H]1C[C@H]1C3=O (relative stereo) [CIS-10,11-CYCLOPROPYL-12-OXO-CALANOLIDE A]
[1]; [46]
  EC50: 14.1 nM
[15]
  CC50: 7140 nM
[16]
  selectivity ratio: 709

## CCCc1cc(=O)oc2c3c(c4c(c12)OC(C)(C)C=C4)OC(CN)CC3=O (stereo unspecified) [1'-AMINEMETHYL-11-DEMETHYL-12-OXO-CALANOLIDE A]
[1]; tzm-b1
  EC50: Not Active

## CCCc1cc(=O)oc2c3c(c4c(c12)OC(C)(C)C=C4)OC(CN=[N+]=[N-])CC3=O (stereo unspecified) [1'-AZIDEMETHYL-11-DEMETHYL-12-OXO-CALANOLIDE A]
[1]; tzm-b1
  EC50: Not Active
[45]
  Activity: Toxic

## CCCc1cc(=O)oc2c3c(c4c(c12)OC(C)(C)C=C4)O[C@H](C)[C@@H](C)[C@@H]3O [CALANOLIDE A]
[1]; [46]
  EC50: 100 nM
[16]
  selectivity ratio: 16
[17]
  EC50: 11.4 nM
[18]
  EC50: 464 nM
[19]
  EC50: 10600 nM
[20]
  EC50: 7170 nM
[21]
  EC50: 159 nM
[22]
  EC50: 2.2 nM

## Cc1ccnc2c1NC(=O)c1cccnc1N2C1CC1 [NEVIRAPINE]
[1]; [46]
  EC50: 8.2 nM
[15]
  CC50: 27100 nM
[16]
  selectivity ratio: 3300
[17]
  EC50: 97.5 nM
[18]
  EC50: 13400 nM
[19]
  EC50: 42.6 nM
[20]
  EC50: 10500 nM
[21]
  EC50: 385 nM
[22]
  EC50: 6150 nM
